Source: paper PMC10303221, “Synthesis, In Silico Studies, and Antioxidant and Tyrosinase Inhibitory Potential of 2-(Substituted Phenyl) Thiazolidine-4-Carboxamide Derivatives” (Pharmaceuticals, 2023)
Converted amounts (≈) assume the structure as drawn.

Columns and labels:
[1] = DPPH free radical scavenging assay (antioxidant activity); details: mean ± SD, triplicate; 30 min at 37 °C, absorbance 517 nm
Source text: The 2,2-Diphenyl-1-picrylhydrazyl (DPPH) radical was used to evaluate the antioxidant potential of the synthesized compounds. Different concentrations of the samples were employed in the subject assay. […] The principle of this assay is related to the conversion of the purple-colored free radical into the pale-yellow-colored reduced form, owing to the action of a proton donating or antioxidant agent. […] Alternatively, compound 1d also acquired hydroxy groups on both mentioned positions. These groups are categorized as strong proton donors which tend to participate in the reduction in DPPH free radicals by donating protons.
The synthesized compounds were evaluated for their antioxidant activity by measuring their ability to scavenge DPPH free radicals. A previously described protocol was followed for this purpose. An amount of 20 µL of each of the four different dilutions of test samples (200, 66.66, 22.22, and 7.41 µg/mL) was added to 96-well plates containing 180 µL of DPPH solution. The absorbance at 517 nm was determined after incubating for 30 min at 37 °C. Ascorbic acid (1 mg/mL DMSO) was used as the positive control, and the assay was performed in triplicate. The IC50 values were also calculated using the % of inhibitions at different concentrations using Table Curve 2D Windows version 4.07.

[2] = molecular target: mushroom tyrosinase (Agaricus bisporus, UniProt C7FF04); experiment: Mushroom tyrosinase inhibitory assay (L-DOPA substrate, dopachrome absorbance at 492 nm); format: biochemical; details: compared with kojic acid
Chain of mushroom tyrosinase (C7FF04 2-392): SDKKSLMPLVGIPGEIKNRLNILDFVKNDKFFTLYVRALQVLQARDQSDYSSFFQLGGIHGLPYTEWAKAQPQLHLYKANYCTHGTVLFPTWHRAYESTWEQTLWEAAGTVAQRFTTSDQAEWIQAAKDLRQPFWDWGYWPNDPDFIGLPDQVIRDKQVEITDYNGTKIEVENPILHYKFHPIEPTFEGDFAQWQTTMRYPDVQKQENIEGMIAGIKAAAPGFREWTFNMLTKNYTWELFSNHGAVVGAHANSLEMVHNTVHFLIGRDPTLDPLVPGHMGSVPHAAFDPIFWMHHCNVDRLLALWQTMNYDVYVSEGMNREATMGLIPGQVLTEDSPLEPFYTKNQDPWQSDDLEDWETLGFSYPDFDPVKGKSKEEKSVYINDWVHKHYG
Experimental: An evaluation of the inhibitory effect on the tyrosinase enzyme was conducted on mushroom tyrosinase.
A tyrosinase inhibitory assay was conducted with the mushroom tyrosinase enzyme. An amount of 20 µL of mushroom tyrosinase (30 U/mL) was combined with 140 µL (20 mM, pH 6.8) of phosphate buffer. An amount of 20 µL of inhibitor solution was added to a 96-well microplate. Then pre-incubation at room temperature was conducted for 10 min. A solution of L-DOPA (20 μL—0.85 mM) was added. This was followed by the incubation of the plate for 20 min at 25 °C. Using a microplate reader (OPTIMax, Tunable), the absorbance of dopa-chrome was recorded at 492 nm.
The absorbance of dopa-chrome was measured at 492 nm using a microplate reader (OPTIMax, Tunable, San Jose, CA, USA). […] The IC50 values were used to express the extent of inhibition. The experiments were performed in triplicate for each concentration.

IC50 in the DPPH free radical scavenging assay [1]	melting point	Tyrosinase inhibitory activity, in words [2]	Compound
7.83 ± 0.5 µg/mL (≈ 44.5 µM)			O=C1O[C@H]([C@@H](O)CO)C(O)=C1O [ascorbic acid, reference compound]
18.17 ± 1.0 µg/mL (≈ 48.5 µM)	112 to 113 °C	moderate activity	COc1ccccc1C1NC(C(=O)Nc2ccc(C(=O)O)c(O)c2)CS1 (stereo not drawn) [Compound 2d, 2-Hydroxy-4-[2-(2-methoxyphenyl)-1,3-thiazolidine-4-carbonyl]-aminobenzoic Acid]
	94 to 95 °C		COc1ccc(C2NC(C(=O)Nc3ccc(C(=O)O)cc3)CS2)cc1 (stereo not drawn) [Compound 4a, 4-[2-(4-Methoxyphenyl)-1,3-thiazolidine-4-carbonyl]-aminobenzoic Acid]
	109 to 110 °C		COc1ccc(C2NC(C(=O)Nc3ccc(C(=O)O)c(O)c3)CS2)cc1 (stereo not drawn) [Compound 4d, 2-Hydroxy-4-[2-(4-methoxyphenyl)-1,3-thiazolidine-4-carbonyl]-aminobenzoic Acid]
	116 to 117 °C	moderate activity	COc1ccccc1C1NC(C(=O)Nc2ccc(C(=O)O)cc2)CS1 (stereo not drawn) [Compound 2a, 4-[2-(2-Methoxyphenyl)-1,3-thiazolidine-4-carbonyl]-aminobenzoic Acid]
	109 to 111 °C		O=C(Nc1ccc(O)cc1)C1CSC(c2ccccc2O)N1 (stereo not drawn) [Compound 1c, 2-(2-Hydroxyphenyl)-N-(4-hydroxyphenyl)-1,3-thiazolidine-4-carboxamide]
18.27 ± 1.1 µg/mL (≈ 50.7 µM)	134 to 135 °C		O=C(O)c1ccc(NC(=O)C2CSC(c3ccccc3O)N2)cc1O (stereo not drawn) [Compound 1d, 2-Hydroxy-4-[2-(2-hydroxyphenyl)-1,3-thiazolidine-4-carbonyl]-aminobenzoic Acid]
	115 to 117 °C	moderate activity	COc1ccc(NC(=O)C2CSC(c3ccc(O)cc3)N2)cc1 (stereo not drawn) [Compound 3e, 2-(4-Hydroxyphenyl)-N-(4-methoxyphenyl)-1,3-thiazolidine-4-carboxamide]
	83 to 84 °C		COc1ccc(NC(=O)C2CSC(c3ccccc3O)N2)cc1 (stereo not drawn) [Compound 1e, 2-(2-Hydroxyphenyl)-N-(4-methoxyphenyl)-1,3-thiazolidine-4-carboxamide]
	174 to 176 °C		O=C(Nc1ccc(O)cc1)C1CSC(c2ccc(O)cc2)N1 (stereo not drawn) [Compound 3c, N,2-Bis(4-hydroxyphenyl)-1,3-thiazolidine-4-carboxamide]
	135 to 136 °C		O=C(O)c1ccc(NC(=O)C2CSC(c3ccccc3O)N2)cc1 (stereo not drawn) [Compound 1a, 4-[2-(2-Hydroxyphenyl)-1,3-thiazolidine-4-carbonyl]-aminobenzoic Acid]
	130 to 131 °C		O=C(O)c1ccc(NC(=O)C2CSC(c3ccc(O)cc3)N2)cc1O (stereo not drawn) [Compound 3d, 2-Hydroxy-4-[2-(4-hydroxyphenyl)-1,3-thiazolidine-4-carbonyl]-aminobenzoic Acid]
	164 to 166 °C		O=C(O)c1ccc(NC(=O)C2CSC(c3ccc(O)cc3)N2)cc1 (stereo not drawn) [Compound 3a, 4-[2-(4-Hydroxyphenyl)-1,3-thiazolidine-4-carbonyl]-aminobenzoic Acid]
	128 to 129 °C		O=C(C1CSC(c2ccccc2O)N1)N1CCOCC1 (stereo not drawn) [Compound 1b, [2-(2-Hydroxyphenyl)-1,3-thiazolidin-4-yl](morpholin-4-yl)-methanone]
	129 to 131 °C	moderate activity	COc1ccc(NC(=O)C2CSC(c3ccc(OC)cc3)N2)cc1 (stereo not drawn) [Compound 4e, N,2-Bis(4-methoxyphenyl)-1,3-thiazolidine-4-carboxamide]
